Test system: Vasopressin V2
Experiment: Vasopressin V2 agonist effects of test compounds in normal conscious water-loaded rats
Type: in vivo
Conditions: Sprague-Dawley (CD) rats, oral 10 mg/kg, urine collected for four hours; for Osmolality (% Increase): change in osmolality as percent of control; for Urine Volume (% decrease): vs. control
Description: Vasopressin V2 Agonist Effects of Test Compounds in Normal Conscious Water-Loaded Rats:
On the day of test, rats were placed individually into metabolic cages equipped with devices to separate the feces from the urine and containers for collection of urine. Test compound or reference agent was given at an oral dose of 10 mg/kg in a volume of 10 ml /kg. […] Thirty minutes after dosing the test compound, rats were gavaged with water at 30 ml /kg into the stomach using a feeding needle. During the test, rats were not provided with water or food. Urine was collected for four hours after dosing of the test compound. At the end of four hours, urine volume was measured. […] Determinations of Na^+, K^+ and Cl^- ion were carried out using ion specific electrodes in a Beckman SYNCHRON EL-ISE Electrolyte System analyzer. […] In the screening test, two rats were used for each compound. If the difference in the urine volume of the two rats was greater than 50%, a third rat was used.

Row | Structure (SMILES) | Osmolality (% Increase) | Urine Volume (% decrease)
1 | CCCC(=O)n1ccc(-c2ccc(C(=O)N3Cc4cccn4Cc4ccccc43)cc2)n1 [Example 33, 1-{3-[4-(5H,11H-Pyrrolo[2,1-c][1,4]benzodiazepine-10-carbonyl)-phenyl]-pyrazol-1-yl}-butan-1-one] | 362% | 68%
2 | Cc1ccc(F)cc1C(=O)n1ccc(-c2ccc(C(=O)N3Cc4cccn4Cc4ccccc43)cc2)n1 [Example 35, {4-[1-(5-Fluoro-2-methyl-benzoyl)-1H-pyrazol-3-yl]-phenyl}-(5H,11H-pyrrolo[2,1-c][1,4]benzodiazepin-10-yl)-methanone] | 308% | 63%
3 | O=C(c1ccc(-c2ccn(C(=O)c3ccc(F)cc3Cl)n2)cc1)N1Cc2cccn2Cc2ccccc21 [Example 37, {4-[1-(2-Chloro-4-fluoro-benzoyl)-1H-pyrazol-3-yl]-phenyl}-(5H,11H-pyrrolo[2,1-c][1,4]benzodiazepin-10-yl]methanone] | 370% | 71%
4 | O=C(c1ccc(-c2ccn(C(=O)Cc3ccc(Cl)cc3Cl)n2)cc1)N1Cc2cccn2Cc2ccccc21 [Example 39, 2-(2,4-Dichloro-phenyl)-1-{3-[4-(5H,11H-pyrrolo[2,1-c][1,4]benzodiazepine-10-carbonyl)-phenyl]-pyrazol-1-yl}-ethanone] | 253% | 69%
5 | O=C(c1ccc(-c2ccn(C(=O)c3ccccc3-c3ccccc3)n2)cc1)N1Cc2cccn2Cc2ccccc21 [Example 40, {4-[1-(Biphenyl-2-carbonyl)-1H-pyrazol-3-yl]-phenyl}-(5H,11H-pyrrolo[2,1-c][1,4]benzodiazepin-10-yl)-methanone] | 183% | 46%
6 | O=C(c1ccc(-c2ccn(C(=O)c3ccccc3-c3ccc(C(F)(F)F)cc3)n2)cc1)N1Cc2cccn2Cc2ccccc21 [Example 41, {4-[1-(4'-Trifluoromethyl-biphenyl-2-carbonyl)-1H-pyrazol-3-yl]-phenyl}-(5H,11H-pyrrolo[2,1-c][1,4]benzodiazepin-10-yl)-methanone] | 240% | 69%
7 | Cc1n[nH]c(-c2ccc(C(=O)N3Cc4cccn4Cc4ccccc43)cc2)n1 [Example 50, [4-(5-Methyl-2H-[1,2,4]triazol-3-yl)-phenyl]-(5H,11H-pyrrolo[2,1-c][1,4]-benzodiazepin-10-yl)-methanone] | 223% | 53%
8 | Cc1nc(-c2ccc(C(=O)N3Cc4cccn4Cc4ccccc43)cc2)n(C)n1 [Example 51, [4-(2,5-Dimethyl-2H-[1,2,4]triazol-3-yl)-phenyl]-(5H,11H-pyrrolo[2,1-c]-[1,4]benzodiazepin-10-yl)-methanone] |  | 72%
9 | Cc1noc(-c2ccc(C(=O)N3Cc4cccn4Cc4ccccc43)cc2)n1 [Example 52, [4-(3-Methyl[1,2,4]oxadiazol-5-yl)-phenyl]-(5H,11H-pyrrolo-[2,1-c][1,4]-benzodiazepin-10-yl)-methanone] | 261% | 66%
10 | Cn1cc(-c2ccc(C(=O)N3Cc4cccn4Cc4ccccc43)cc2)cn1 [Example 55, [4-(1-Methyl-1H-pyrazol-4-yl)-phenyl]-(5H,11H-pyrrolo[2,1-c][1,4]-benzodiazepin-10-yl)-methanone] | 164% | 80%
11 | Cn1cc(-c2ccc(C(=O)N3Cc4cccn4Cc4ccccc43)cn2)cn1 [Example 57, [6-(1-Methyl-1H-pyrazol-4-yl)-pyridin-3-yl]-(5H,11H-pyrrolo[2,1-c][1,4]-benzodiazepin-10-yl)-methanone] | 288% | 77%
12 | O=C(c1ccc(-n2cccn2)cc1)N1Cc2cccn2Cc2ccccc21 [Example 58, [4-(Pyrazol-1-yl)-phenyl]-(5H,11H-pyrrolo[2,1-c][1,4]benzodiazepin-10-yl)-methanone] | 324% | 49%
13 | Cc1ccn(-c2ccc(C(=O)N3Cc4cccn4Cc4ccccc43)cc2)n1 [Example 59, [4-(3-Methyl-pyrazol-1-yl)-phenyl]-(5H,11H-pyrrolo[2,1-c][1,4]-benzodiazepin-10-yl)-methanone] | 607% | 80%
14 | Cc1cnn(-c2ccc(C(=O)N3Cc4cccn4Cc4ccccc43)cc2)c1 [Example 60, [4-(4-Methyl-pyrazol-1-yl)-phenyl]-(5H,11H-pyrrolo[2,1-c][1,4]-benzodiazepin-10-yl)-methanone] | 165% | 54%
15 | Cc1cc(C)n(-c2ccc(C(=O)N3Cc4cccn4Cc4ccccc43)cc2)n1 [Example 61, [4-(3,5-Dimethyl-pyrazol-1-yl)-phenyl]-(5H,11H-pyrrolo[2,1-c][1,4]-benzodiazepin-10-yl)-methanone] | 245% | 59%
16 | O=C(c1ccc(-n2ccc(C(F)(F)F)n2)cc1)N1Cc2cccn2Cc2ccccc21 [Example 62, (5H,11H-Pyrrolo[2,1-c][1,4]benzodiazepin-10-yl)-[4-(3-trifluoromethyl-pyrazol-1-yl)-phenyl]-methanone] | 150% | 22%
17 | O=C(c1ccc(-n2ccnc2)cc1)N1Cc2cccn2Cc2ccccc21 [Example 63, [4-(Imidazol-1-yl)-phenyl]-(5H,11H-pyrrolo[2,1-c][1,4]benzodiazepin-10-yl)-methanone] | 214% | 27%
18 | Cc1cn(-c2ccc(C(=O)N3Cc4cccn4Cc4ccccc43)cc2)cn1 [Example 64, [4-(4-Methyl-imidazol-1-yl)-phenyl]-(5H,11H-pyrrolo[2,1-c][1,4]-benzodiazepin-10-yl)-methanone] | 349% | 79%
19 | Cn1ccc(-c2ccc(C(=O)N3Cc4cccn4Cc4ccccc43)c(Cl)c2)n1 [Example 71, [2-Chloro-4-(1-methyl-1H-pyrazol-3-yl)-phenyl]-(5H,11H-pyrrolo[2,1-c]-[1,4]benzodiazepine-10-yl)-methanone] | 264% | 84%
20 | N#Cc1ccc(C(=O)N2Cc3cccn3Cc3ccccc32)c(Cl)c1 [Example 77, 3-Chloro-4-(5H,11H-pyrrolo[2,1-c][1,4]benzodiazepine-10-carbonyl)-benzonitrile] | 90% | 13%
21 | O=C(O)c1ccc(C(=O)N2Cc3cccn3Cc3ccccc32)c(Cl)c1 [Example 78, 3-Chloro-4-(5H,11H-Pyrrolo[2,1-c][1,4]benzodiazepine-10-carbonyl)-benzoic acid] | 115% | 21%
22 | NC(=O)c1ccc(C(=O)N2Cc3cccn3Cc3ccccc32)c(Cl)c1 [Example 79, 3-Chloro-4-(5H,11H-pyrrolo[2,1-c][1,4]benzodiazepine-10-carbonyl)-benzamide] | 123% | 38%
23 | Cc1n[nH]c(-c2ccc(C(=O)N3Cc4cccn4Cc4ccccc43)c(Cl)c2)n1 [Example 81, [2-Choro-4-(5-methyl-2H-[1,2,4]triazol-3-yl)phenyl]-(5H,11H-pyrrolo[2,1-c][1,4]benzodiazepine-10-carbonyl)-methanone] | 490% | 82%
